From patent US10633407B2, “14-membered ketolides and methods of their preparation and use” (President and Fellows of Harvard College, priority 2014, dated 2020)
Values after ≈ are worked out from the molar mass of the structure shown.

Experiments:
Assay in all cases: CLSI broth dilution MIC determination
Format in all cases: cell-based
E. coli ATCC 25922 = details: Escherichia coli, ATCC25922, E. coli ATCC 25922 (MP-4); read-out: MIC
Description: (§1) MIC data was collected for the novel macrolides that this platform has produced against over 21 unique strains of B. subtilis, E. coli, S. aureus, S. pneumoniae, and H. influenzae, including several multidrug-resistant strains, with a special focus on macrolide resistant mechanisms (vide supra). Azithromycin (Azithro) and Solithromycin (Solithro) were included as a control macrolides in many cases. CLSI standard procedures for broth dilution MIC determination were used. […] These genotypes can be constitutive or inducible.

[1] = tested on: E. coli MP-532 clinical-cErmB; details: Escherichia coli
Description: as §1

E. coli MP-541 clinical = details: Escherichia coli, MP541CLINICAL, read-out: MIC
Description: as §1

[2] = tested on: E. coli MP-9 ATCC25922:tolC; details: Escherichia coli, ATCC25922
Description: as §1

[3] = tested on: S. aureus (MRSA) MP-513 ST-228 cErm (Clinical-cErm); details: Staphylococcus aureus, read-out: MIC
Description: as §1

S. aureus ATCC 29213 = details: Staphylococcus aureus, ATCC29213; S. aureus ATCC 29213 (MP-12); read-out: MIC
Description: as §1

[4] = tested on: S. aureus MP-17 ATCCBAA-977 (BAA 977 iErm); details: Staphylococcus aureus; S. aureus MP-17, ATCCBAA-977, iErm; read-out: MIC
Description: as §1

S. aureus MRSA: USA300 = details: Staphylococcus aureus; S. aureus MRSA: USA300 (MP-549, msr(a)); read-out: MIC
Description: as §1

A. baumannii ATCC 19606 = details: Acinetobacter baumannii, ATCC19606; A. baumannii ATCC 19606 (MP-15); read-out: MIC
K. pneumoniae ATCC 10031 = details: Klebsiella pneumoniae, ATCC10031, K. pneumoniae ATCC 10031 (MP-14); read-out: MIC
P. aeruginosa ATCC 27853 = details: Pseudomonas aeruginosa, ATCC27853; P. aeruginosa ATCC 27853 (MP-3); read-out: MIC
P. aeruginosa MP-7 PAO1 = details: Pseudomonas aeruginosa, read-out: MIC
[5] = tested on: P. aeruginosa MP-8 PAO1:mex (mex-oprM-deletion); details: Pseudomonas aeruginosa, PAO1
[6] = tested on: K. pneumoniae MP-548 clinical; details: Klebsiella pneumoniae, MP548CLINICAL, read-out: MIC
[7] = tested on: K. pneumoniae MP-546 Clinical-MDR; details: Klebsiella pneumoniae, read-out: MIC
[8] = tested on: A. baumannii MP-577 Clinical-AZT low; details: Acinetobacter baumannii, read-out: MIC
[9] = tested on: A. baumannii MP-576 Clinical-MDR; details: Acinetobacter baumannii, read-out: MIC

With `CC[C@H]1OC(=O)[C@@](C)(F)C(=O)[C@H](C)[C@@H](O[C@@H]2OC(C)CC(N(C)C)C2O)[C@](C)(OC)C[C@@H](C)C(=O)[C@H](C)[C@H]2N(CC#CCn3cc(-c4nccc(N)n4)nn3)C(=O)O[C@]12C` (stereo partly drawn) [FSM-22749] the MIC (E. coli ATCC 25922) was 64 µg/mL (≈ 75.9 µM), the MIC [1] was over 64 µg/mL and the MIC (E. coli MP-541 clinical) was 64 µg/mL (≈ 75.9 µM). For the same compound, the MIC [2] was 8 µg/mL (≈ 9.49 µM), the MIC [3] was over 64 µg/mL and the MIC (S. aureus ATCC 29213) was 2 µg/mL (≈ 2.37 µM). It also gave an MIC [4] of 2 µg/mL (≈ 2.37 µM), an MIC (S. aureus MRSA: USA300) of 2 µg/mL (≈ 2.37 µM) and an MIC (A. baumannii ATCC 19606) of 32 µg/mL (≈ 38 µM). For the same compound, the MIC (K. pneumoniae ATCC 10031) was 16 µg/mL (≈ 19 µM), the MIC (P. aeruginosa ATCC 27853) was over 64 µg/mL and the MIC (P. aeruginosa MP-7 PAO1) was over 64 µg/mL. The MIC [5] was 16 µg/mL (≈ 19 µM), the MIC [6] was over 64 µg/mL and the MIC [7] was over 64 µg/mL. For the same compound, the MIC [8] was over 64 µg/mL and the MIC [9] was over 64 µg/mL.
In the case of `CC[C@H]1OC(=O)[C@@](C)(F)C(=O)[C@H](C)[C@@H](O[C@@H]2OC(C)CC(N(C)C)C2O)[C@](C)(OC)C[C@@H](C)C(=O)[C@H](C)[C@H]2N(CC#CCn3cc(-c4cc(F)nc(F)n4)nn3)C(=O)O[C@]12C` (stereo partly drawn) [FSM-22750], the MIC (E. coli ATCC 25922) is reported as over 64 µg/mL, the MIC [1] is reported as over 64 µg/mL and the MIC (E. coli MP-541 clinical) is reported as over 64 µg/mL. The MIC [2] was over 64 µg/mL, the MIC [3] was over 64 µg/mL and the MIC (S. aureus ATCC 29213) was 4 µg/mL (≈ 4.63 µM). For the same compound, the MIC [4] was 8 µg/mL (≈ 9.26 µM), the MIC (S. aureus MRSA: USA300) was 8 µg/mL (≈ 9.26 µM) and the MIC (A. baumannii ATCC 19606) was over 64 µg/mL. It also gave an MIC (K. pneumoniae ATCC 10031) of over 64 µg/mL, an MIC (P. aeruginosa ATCC 27853) of over 64 µg/mL and an MIC (P. aeruginosa MP-7 PAO1) of over 64 µg/mL. The MIC [5] was over 64 µg/mL, the MIC [6] was over 64 µg/mL and the MIC [7] was over 64 µg/mL. For the same compound, the MIC [8] was over 64 µg/mL and the MIC [9] was over 64 µg/mL.
For `CC[C@H]1OC(=O)[C@@](C)(F)C(=O)[C@H](C)[C@@H](O[C@@H]2OC(C)CC(N(C)C)C2O)[C@](C)(OC)C[C@@H](C)C(=O)[C@H](C)[C@H]2N(CC#CCn3cc(-c4cc(OC)ccn4)nn3)C(=O)O[C@]12C` (stereo partly drawn) [FSM-100576], the MIC (E. coli ATCC 25922) was 32 µg/mL (≈ 37.3 µM), the MIC [1] was over 32 µg/mL and the MIC (E. coli MP-541 clinical) was 32 µg/mL (≈ 37.3 µM). The MIC [2] was 2 µg/mL (≈ 2.33 µM), the MIC [3] was over 32 µg/mL and the MIC (S. aureus ATCC 29213) was 0.125 µg/mL (≈ 0.146 µM). For the same compound, the MIC [4] was 0.125 µg/mL (≈ 0.146 µM), the MIC (S. aureus MRSA: USA300) was 0.25 µg/mL (≈ 0.292 µM) and the MIC (A. baumannii ATCC 19606) was 16 µg/mL (≈ 18.7 µM). The MIC (K. pneumoniae ATCC 10031) was 4 µg/mL (≈ 4.67 µM), the MIC (P. aeruginosa ATCC 27853) was over 32 µg/mL and the MIC (P. aeruginosa MP-7 PAO1) was over 32 µg/mL. For the same compound, the MIC [5] was 8 µg/mL (≈ 9.33 µM), the MIC [6] was over 32 µg/mL and the MIC [7] was over 32 µg/mL. It also gave an MIC [8] of over 32 µg/mL and an MIC [9] of over 32 µg/mL.
For `CC[C@H]1OC(=O)[C@@](C)(F)C(=O)[C@H](C)[C@@H](O[C@@H]2OC(C)CC(N(C)C)C2O)[C@](C)(OC)C[C@@H](C)C(=O)[C@H](C)[C@H]2N(CC#CCn3cc(-c4cc(N)ccn4)nn3)C(=O)O[C@]12C` (stereo partly drawn) [FSM-100593], the MIC (E. coli ATCC 25922) was 4 µg/mL (≈ 4.75 µM), the MIC [1] was over 64 µg/mL and the MIC (E. coli MP-541 clinical) was 8 µg/mL (≈ 9.5 µM). It also gave an MIC [2] of 0.5 µg/mL (≈ 0.594 µM), an MIC [3] of 64 µg/mL (≈ 76 µM) and an MIC (S. aureus ATCC 29213) of 0.125 µg/mL (≈ 0.148 µM). For the same compound, the MIC [4] was 0.125 µg/mL (≈ 0.148 µM), the MIC (S. aureus MRSA: USA300) was 0.25 µg/mL (≈ 0.297 µM) and the MIC (A. baumannii ATCC 19606) was 8 µg/mL (≈ 9.5 µM). For the same compound, the MIC (K. pneumoniae ATCC 10031) was 1 µg/mL (≈ 1.19 µM), the MIC (P. aeruginosa ATCC 27853) was 32 µg/mL (≈ 38 µM) and the MIC (P. aeruginosa MP-7 PAO1) was 32 µg/mL (≈ 38 µM). The MIC [5] was 2 µg/mL (≈ 2.38 µM), the MIC [6] was 16 µg/mL (≈ 19 µM) and the MIC [7] was 32 µg/mL (≈ 38 µM). It also gave an MIC [8] of 8 µg/mL (≈ 9.5 µM) and an MIC [9] of over 64 µg/mL.
For `CC[C@H]1OC(=O)[C@@](C)(F)C(=O)[C@H](C)[C@@H](O[C@@H]2OC(C)CC(N(C)C)C2O)[C@](C)(OC)C[C@@H](C)C(=O)[C@H](C)[C@H]2N(CC#CCn3cc(-c4cc(=O)cc[nH]4)nn3)C(=O)O[C@]12C` (stereo partly drawn) [FSM-100597], the MIC (E. coli ATCC 25922) was 64 µg/mL (≈ 75.9 µM), the MIC [1] was over 64 µg/mL and the MIC (E. coli MP-541 clinical) was 32 µg/mL (≈ 38 µM). For the same compound, the MIC [2] was 4 µg/mL (≈ 4.75 µM), the MIC [3] was over 64 µg/mL and the MIC (S. aureus ATCC 29213) was 1 µg/mL (≈ 1.19 µM). It also gave an MIC [4] of 1 µg/mL (≈ 1.19 µM), an MIC (S. aureus MRSA: USA300) of 2 µg/mL (≈ 2.37 µM) and an MIC (A. baumannii ATCC 19606) of 64 µg/mL (≈ 75.9 µM). It also gave an MIC (K. pneumoniae ATCC 10031) of 8 µg/mL (≈ 9.49 µM), an MIC (P. aeruginosa ATCC 27853) of over 64 µg/mL and an MIC (P. aeruginosa MP-7 PAO1) of over 64 µg/mL. The MIC [5] was 16 µg/mL (≈ 19 µM), the MIC [6] was over 64 µg/mL and the MIC [7] was over 64 µg/mL. It also gave an MIC [8] of over 64 µg/mL and an MIC [9] of over 64 µg/mL.
`CC[C@H]1OC(=O)[C@@](C)(F)C(=O)[C@H](C)[C@@H](O[C@@H]2OC(C)CC(N(C)C)C2O)[C@](C)(OC)C[C@@H](C)C(=O)[C@H](C)[C@H]2N(CC#CCn3cc(-c4cccc(F)n4)nn3)C(=O)O[C@]12C` (stereo partly drawn) [FSM-100627] was tested, and the MIC (E. coli ATCC 25922) was 16 µg/mL (≈ 18.9 µM), the MIC [1] was over 64 µg/mL and the MIC (E. coli MP-541 clinical) was 8 µg/mL (≈ 9.47 µM). It also gave an MIC [2] of 1 µg/mL (≈ 1.18 µM), an MIC [3] of 32 µg/mL (≈ 37.9 µM) and an MIC (S. aureus ATCC 29213) of 0.06 µg/mL (≈ 0.071 µM). It also gave an MIC [4] of 0.06 µg/mL (≈ 0.071 µM), an MIC (S. aureus MRSA: USA300) of 0.125 µg/mL (≈ 0.148 µM) and an MIC (A. baumannii ATCC 19606) of 8 µg/mL (≈ 9.47 µM). The MIC (K. pneumoniae ATCC 10031) was 2 µg/mL (≈ 2.37 µM), the MIC (P. aeruginosa ATCC 27853) was 64 µg/mL (≈ 75.7 µM) and the MIC (P. aeruginosa MP-7 PAO1) was 64 µg/mL (≈ 75.7 µM). The MIC [5] was 4 µg/mL (≈ 4.73 µM), the MIC [6] was 32 µg/mL (≈ 37.9 µM) and the MIC [7] was 64 µg/mL (≈ 75.7 µM). It also gave an MIC [8] of 32 µg/mL (≈ 37.9 µM) and an MIC [9] of over 64 µg/mL.
